Measured values taken from the supplement of paper PMC11208160.

Assay: recombinant barcode read abundance after kanamycin selection (control-corrected) (log10(CPM+1)); higher = more efficient recombination; sequences stand for … in AGTGCAGAGAAAATCGGCCAGTTTTCTCTGCCTGCAGTCCGCATGCCGT…AGATTTATGCAGCGGACTGCCTTTCTCCCAAAGTGATAAACCGGACAGTATCATGGACCGGTTTTCCCGGTAATCCGTATTTGCAAGGTTGGTTTCACT; site = the 11-nt target
Procedure, shortened: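 This pooled E. coli screen matched targets with IS621 bridge RNA target-binding loops. Plating was done in duplicate on chloramphenicol/ampicillin LB agar as a control and on chloramphenicol/ampicillin/kanamycin plus 0.1 mM IPTG. Recombination efficiency reflects barcode counts at recombinant junctions as counts per million, averaged and control-corrected. The figures are log10(CPM+1).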
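Note: IS621 recombinase and bridge RNA in Escherichia coli cells.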

Row | Sequence | recombinant barcode read abundance (log10)
1 | CACAGTCCTTGGGTTCTAACCTGTTGCTA (site AGGGTCGCTAG) | 0.049
2 | CACAGTCCTTGGGTTCTAACCTGTTGCTA (site CACAGTCCTTA) | 0.966
3 | CACCAAACTTGGGTTCTAACCTGTTGCCT (site CACCAAACTAG) | 0.299
4 | CACCAAACTTGGGTTCTAACCTGTTGCCT (site CACCAACCTAG) | 0.0986
5 | CACCACCCTTGGGTTCTAACCTGTTGCGG (site CACCACCCTCC) | 1.35
6 | CACCACCCTTGGGTTCTAACCTGTTGCGG (site GGTACTTCTAA) | 0.358
7 | CACCGAGCTTGGGTTCTAACCTGTTGCCG (site CAACGAGCTCG) | 0.223
8 | CACCGAGCTTGGGTTCTAACCTGTTGCCG (site CACCGAGCTCG) | 0.577
9 | CACCGAGCTTGGGTTCTAACCTGTTGCCG (site CAGCGAGCTCG) | 0.534
10 | CACCGAGCTTGGGTTCTAACCTGTTGCCG (site CATCGAGCTCG) | 0.145
11 | CACGAGCCTTGGGTTCTAACCTGTTGCCT (site CACGAGACTAG) | 0.149
12 | CACGAGCCTTGGGTTCTAACCTGTTGCCT (site CACGAGCCTAG) | 2.24
13 | CACGAGCCTTGGGTTCTAACCTGTTGCCT (site CACGAGGCTAG) | 0.0367
14 | CACGAGCCTTGGGTTCTAACCTGTTGCCT (site CACGAGTCTAG) | 1.63
15 | CACGCATCTTGGGTTCTAACCTGTTGCCT (site CACCAATCTAG) | 0.211
16 | CACGCATCTTGGGTTCTAACCTGTTGCCT (site CACGCATCTAG) | 0.822
17 | CACGGAACTTGGGTTCTAACCTGTTGCCT (site CACGGAACTAG) | 1.82
18 | CACGGAACTTGGGTTCTAACCTGTTGCCT (site CACGTTACTAG) | 0.59
19 | CACGGGCCTTGGGTTCTAACCTGTTGCCT (site CACGGGCCTAG) | 0.466
20 | CACGGGCCTTGGGTTCTAACCTGTTGCCT (site GACAGGCCTAG) | 0.0551
21 | CACTAGACTTGGGTTCTAACCTGTTGCCG (site CACTAGACTCG) | 1.37
22 | CACTAGACTTGGGTTCTAACCTGTTGCCG (site GTGACTGCTAC) | 0.242

Row | Sequence | recombinant barcode read abundance (log10)
23 | CACTCCTCTTGGGTTCTAACCTGTTGCTT (site CACTCCTCTAA) | 0.0523
24 | CACTCCTCTTGGGTTCTAACCTGTTGCTT (site CTCTGCTCTAA) | 0.0209
25 | CACTGAGCTTGGGTTCTAACCTGTTGCCT (site CACTGAGCTAG) | 0.845
26 | CACTGAGCTTGGGTTCTAACCTGTTGCCT (site TACTGAGCTAG) | 0.229
27 | CACTGATCTTGGGTTCTAACCTGTTGCCT (site CACTGATCTAG) | 1.28
28 | CACTGATCTTGGGTTCTAACCTGTTGCCT (site CACTGCTCTAG) | 0.0175
29 | CACTGATCTTGGGTTCTAACCTGTTGCCT (site CACTGGTCTAG) | 0.281
30 | CACTGATCTTGGGTTCTAACCTGTTGCCT (site CACTGTTCTAG) | 0.302
31 | CACTTTGCTTGGGTTCTAACCTGTTGCCT (site AGGGAGACTGA) | 0.145
32 | CACTTTGCTTGGGTTCTAACCTGTTGCCT (site CACTTTGCTAG) | 0.207
33 | CAGAATCCTTGGGTTCTAACCTGTTGCGG (site CAGAATCCTCC) | 1.73
34 | CAGAATCCTTGGGTTCTAACCTGTTGCGG (site TCTCTCGCTAG) | 0.0949
35 | CAGACGACTTGGGTTCTAACCTGTTGCCA (site CAGACGACTTG) | 0.37
36 | CAGACGACTTGGGTTCTAACCTGTTGCCA (site TGCTGTCCTAA) | 0.0664
37 | CAGAGATCTTGGGTTCTAACCTGTTGCTT (site CAAAGATCTAA) | 0.328
38 | CAGAGATCTTGGGTTCTAACCTGTTGCTT (site CACAGATCTAA) | 0.137
39 | CAGAGATCTTGGGTTCTAACCTGTTGCTT (site CAGAGATCTAA) | 1.33
40 | CAGAGATCTTGGGTTCTAACCTGTTGCTT (site CATAGATCTAA) | 0.104
41 | CAGAGCTCTTGGGTTCTAACCTGTTGCCG (site AGACAGACTAC) | 0.078
42 | CAGAGCTCTTGGGTTCTAACCTGTTGCCG (site CAGAGCTCTCG) | 2.05
43 | CAGAGTCCTTGGGTTCTAACCTGTTGCAT (site CAGAGTCCTAG) | 0.852
44 | CAGAGTCCTTGGGTTCTAACCTGTTGCAT (site CAGAGTCCTAT) | 1.88

Row | Sequence | recombinant barcode read abundance (log10)
45 | CAGATTCCTTGGGTTCTAACCTGTTGCCT (site CAGATTCCTAG) | 0.542
46 | CAGATTCCTTGGGTTCTAACCTGTTGCCT (site GAGATTCCTAG) | 0.222
47 | CAGCCACCTTGGGTTCTAACCTGTTGCCT (site AAGCCACCTAG) | 0.0775
48 | CAGCCACCTTGGGTTCTAACCTGTTGCCT (site CAGCCACCTAG) | 1.4
49 | CAGCCACCTTGGGTTCTAACCTGTTGCCT (site GAGCCACCTAG) | 0.0262
50 | CAGCCACCTTGGGTTCTAACCTGTTGCCT (site TAGCCACCTAG) | 0
51 | CAGCGGTCTTGGGTTCTAACCTGTTGCGA (site CAGCGGTCTTC) | 1.65
52 | CAGCGGTCTTGGGTTCTAACCTGTTGCGA (site TTATACACTCT) | 0.0232
53 | CAGCTAACTTGGGTTCTAACCTGTTGCCT (site CAAATAACTAG) | 0.0162
54 | CAGCTAACTTGGGTTCTAACCTGTTGCCT (site CAGCTAACTAG) | 1.54
55 | CAGGCGCCTTGGGTTCTAACCTGTTGCCT (site CAGGCGACTAG) | 0.335
56 | CAGGCGCCTTGGGTTCTAACCTGTTGCCT (site CAGGCGCCTAG) | 0.979
57 | CAGGCGCCTTGGGTTCTAACCTGTTGCCT (site CAGGCGGCTAG) | 0.178
58 | CAGGCGCCTTGGGTTCTAACCTGTTGCCT (site CAGGCGTCTAG) | 0.527
59 | CAGGCGTCTTGGGTTCTAACCTGTTGCCT (site CAGGCGACTAG) | 0.109
60 | CAGGCGTCTTGGGTTCTAACCTGTTGCCT (site CAGGCGCCTAG) | 0.289
61 | CAGGCGTCTTGGGTTCTAACCTGTTGCCT (site CAGGCGGCTAG) | 0.111
62 | CAGGCGTCTTGGGTTCTAACCTGTTGCCT (site CAGGCGTCTAG) | 0.59
63 | CAGGGGACTTGGGTTCTAACCTGTTGCCG (site CAAGGGACTCC) | 0.177
64 | CAGGGGACTTGGGTTCTAACCTGTTGCCG (site CAGGGGACTCG) | 0.734
65 | CAGGGGTCTTGGGTTCTAACCTGTTGCAT (site AGCCTCCCTTG) | 0.0284
66 | CAGGGGTCTTGGGTTCTAACCTGTTGCAT (site CAGGGGTCTAT) | 2.04

Row | Sequence | recombinant barcode read abundance (log10)
67 | CAGTAATCTTGGGTTCTAACCTGTTGCCT (site CAGTAATCTAG) | 0.683
68 | CAGTAATCTTGGGTTCTAACCTGTTGCCT (site CAGTACTCTAG) | 0.138
69 | CAGTAATCTTGGGTTCTAACCTGTTGCCT (site CAGTAGTCTAG) | 0.169
70 | CAGTAATCTTGGGTTCTAACCTGTTGCCT (site CAGTATTCTAG) | 0
71 | CAGTCTACTTGGGTTCTAACCTGTTGCCT (site CAGTCTACTAG) | 0.115
72 | CAGTCTACTTGGGTTCTAACCTGTTGCCT (site CCGTCTACTAG) | 0.26
73 | CAGTCTACTTGGGTTCTAACCTGTTGCCT (site CGGTCTACTAG) | 0.132
74 | CAGTCTACTTGGGTTCTAACCTGTTGCCT (site CTGTCTACTAG) | 0.0878
75 | CATAACTCTTGGGTTCTAACCTGTTGCCT (site AATAACTCTAG) | 0.0585
76 | CATAACTCTTGGGTTCTAACCTGTTGCCT (site CATAACTCTAG) | 1.3
77 | CATAACTCTTGGGTTCTAACCTGTTGCCT (site GATAACTCTAG) | 0.331
78 | CATAACTCTTGGGTTCTAACCTGTTGCCT (site TATAACTCTAG) | 0.0747
79 | CATAAGCCTTGGGTTCTAACCTGTTGCCT (site CATAAGCCTAG) | 0.633
80 | CATAAGCCTTGGGTTCTAACCTGTTGCCT (site CATCAGCCTAG) | 0.07
81 | CATAAGCCTTGGGTTCTAACCTGTTGCCT (site CATGAGCCTAG) | 0.0152
82 | CATAAGCCTTGGGTTCTAACCTGTTGCCT (site CATTAGCCTAG) | 0.0852
83 | CATAGATCTTGGGTTCTAACCTGTTGCAT (site ATCTAGGCTCG) | 0.0128
84 | CATAGATCTTGGGTTCTAACCTGTTGCAT (site CATAGATCTAT) | 1.22
85 | CATAGTCCTTGGGTTCTAACCTGTTGCCT (site CAGAGTCCTAA) | 0.0573
86 | CATAGTCCTTGGGTTCTAACCTGTTGCCT (site CATAGTCCTAG) | 0.605
